Results taken from patent US20230225972A1 (priority 2020, published 2023).

Test system: influenza
Design: species or system Mice
Conditions: mouse, in vivo

For `Nc1nc2c(ncn2[C@@H]2O[C@@H]3COP(=O)(O)O[C@H]4[C@@H](O)[C@H](n5cnc6c(=O)[nH]c(N)nc65)O[C@@H]4COP(=O)(O)O[C@H]3[C@H]2O)c(=O)[nH]1` [c-di-GMP], the “viral replication in the nose” value was “facilitate reduction of viral replication in the nose”.
